The NIST ThermoML archive (doi:10.1016/j.jct.2013.02.023)

Settings: relaxation calorimetry - Quantum Design PPMS; for molar entropy: 101.33 kPa

O=P([O-])([O-])OP(=O)([O-])[O-].O=P([O-])([O-])OP(=O)([O-])[O-].O=P([O-])([O-])OP(=O)([O-])[O-].[Fe+3].[Fe+3].[Fe+3].[Fe+3] [iron(III) diphosphate]
Settings	molar entropy [J/K/mol]
1 K, Crystal 3	0.07578
2 K, Crystal 3	0.1665
3 K, Crystal 3	0.2869
4 K, Crystal 3	0.4556
5 K, Crystal 3	0.6947
6 K, Crystal 3	1.027
7 K, Crystal 3	1.472
8 K, Crystal 3	2.047
9 K, Crystal 3	2.754
10 K, Crystal 3	3.591
11 K, Crystal 3	4.553
12 K, Crystal 3	5.629
13 K, Crystal 3	6.809
14 K, Crystal 3	8.084
15 K, Crystal 3	9.437
16 K, Crystal 3	10.86
17 K, Crystal 3	12.36
18 K, Crystal 3	13.92
19 K, Crystal 3	15.55
20 K, Crystal 3	17.25
25 K, Crystal 3	26.52
30 K, Crystal 2	36.76
35 K, Crystal 2	47.46
40 K, Crystal 2	59.06
45 K, Crystal 2	71.73
50 K, Crystal 1	84.46
55 K, Crystal 1	93.95
60 K, Crystal 1	103.22
65 K, Crystal 1	112.55
70 K, Crystal 1	121.98
75 K, Crystal 1	131.56
80 K, Crystal 1	141.27
85 K, Crystal 1	151.12
90 K, Crystal 1	161.1
95 K, Crystal 1	171.2
100 K, Crystal 1	181.43
110 K, Crystal 1	202.07
120 K, Crystal 1	222.81
130 K, Crystal 1	243.5
140 K, Crystal 1	264.06
150 K, Crystal 1	284.46
160 K, Crystal 1	304.66
170 K, Crystal 1	324.67
180 K, Crystal 1	344.47
190 K, Crystal 1	364.05
200 K, Crystal 1	383.42
210 K, Crystal 1	402.56
220 K, Crystal 1	421.48
230 K, Crystal 1	440.17
240 K, Crystal 1	458.61
250 K, Crystal 1	476.82
260 K, Crystal 1	494.79
270 K, Crystal 1	512.5
273.15 K, Crystal 1	518.03
280 K, Crystal 1	529.97
290 K, Crystal 1	547.19
298.15 K, Crystal 1	561.03
300 K, Crystal 1	564.15

Settings	Triple point temperature [K]
Crystal 2	47.6
Crystal 3	27.3
